Consider 21 compounds from patent US20240116912A1, “COMPOUNDS AND METHODS FOR MODULATING FXR” (Terns Pharmaceuticals, Inc., priority 2020, published 2024).

Assay [1] concerns the target full length human FXR protein (Homo sapiens (Human), UniProt Q96RI1). Kind of assay: FXR cellular assay (FXR-SRCP β-gal enzyme fragment complementation in CHO-K1 cells, chemiluminescence). In kind it is cell-based. The note with it: CHO-K1 cells with SRCP-EA and ProLink-labeled FXR, 0-10 micromolar compound, 37° C. for 6h, read-out: EC50 FXR-cell Luminescence/. From the text: A cell based FXR assay was used to detect protein-protein interactions between an activated (ligand-bound), full length human FXR protein and a nuclear fusion protein containing a Steroid Receptor Coactivator Peptide (SCRP) domain. In this approach, two weakly complementing fragments of the 3-gal enzyme were expressed within stably transfected Chinese Hamster Ovary (CHO-K1) cells. The complementing fragments of the 3-gal enzyme (ProLink, PK; and Enzyme Acceptor, EA) were translationally fused to the C-terminus of a full-length FXR and to the SRCP, respectively. Complementation was driven by the protein-protein interaction between SRCP-EA and a ProLink-labeled FXR. Upon FXR-SRCP binding, the two fragments of 3-gal complement, forming a functional enzyme capable of hydrolyzing a substrate molecule and generating a chemiluminescent signal.
CHO-K1 cells containing SRCP-EA and ProLink-labeled FXR were plated in 384-well microplates and incubated at 37° C. overnight. A positive control FXR agonist, GW4064 (0-10 micromolar), or test compounds (0-10 micromolar) were added to plated cells and incubated at 37° C. for 6h (final DMSO vehicle concentration was 1%). The assay signal was generated by addition of 50% (v/v) detection reagent (19:5:1, cell assay buffer: substrate reagent 1: substrate reagent 2, DiscoverX) followed by incubation for 1h at ambient room temperature. Microplates were analyzed using an Envision reader (PerkinElmer Life and Analytical Sciences, Signal=chemiluminescence).

For assay [2], the target named is ligand binding domain (LBD) of recombinant human FXR (Homo sapiens (Human), UniProt Q96RI1). Kind of assay: FXR cell free coactivator (SRC-1) recruitment assay, TR-FRET. Conditions: FXR LBD (amino acids 244-476) with labeled SRC-1 domain, 25° C. for 60 minutes, activity relative to CDCA maximum; read-out: EC50 FXR- Biochemical TR-FRET/μM. As to the method:
A cell free coactivator recruitment assay was developed for FXR, to measure the functional potency of novel FXR compounds. In this assay, novel FXR compounds were bound to the ligand binding domain (LBD) of recombinant human FXR. The ability of this liganded homodimeric complex to recruit the co-activator protein steroid receptor coactivator 1 (SRC-1) was measured using Time-Resolved Fluorescence Resonance Energy Transfer (TR-FRET).
The LBD of human FXR (amino acids 244-476) was cloned into an expression vector for protein expression in SF9 insect cells. Purified FXR LBD was incubated in TR-FRET coregulator buffer G (Eurofins) with test compounds (0-10 micromolar) and a labeled nuclear receptor interaction domain of SRC-1 at 25° C. for 60 minutes (final DMSO vehicle concentration was 1.2%). Assays were analyzed using an Envision TR-FRET reader (PerkinElmer Life and Analytical Sciences). Compound activity at each concentration was defined as a percentage of the maximal activity of the natural FXR ligand agonist chenodeoxycholic acid (CDCA) generating a dose response curve.
A general note: TR-FRET usually uses a lanthanide donor and a delayed reading to cut background.

Chain of full length human FXR protein (Q96RI1 whole entry, the tested form may be a part): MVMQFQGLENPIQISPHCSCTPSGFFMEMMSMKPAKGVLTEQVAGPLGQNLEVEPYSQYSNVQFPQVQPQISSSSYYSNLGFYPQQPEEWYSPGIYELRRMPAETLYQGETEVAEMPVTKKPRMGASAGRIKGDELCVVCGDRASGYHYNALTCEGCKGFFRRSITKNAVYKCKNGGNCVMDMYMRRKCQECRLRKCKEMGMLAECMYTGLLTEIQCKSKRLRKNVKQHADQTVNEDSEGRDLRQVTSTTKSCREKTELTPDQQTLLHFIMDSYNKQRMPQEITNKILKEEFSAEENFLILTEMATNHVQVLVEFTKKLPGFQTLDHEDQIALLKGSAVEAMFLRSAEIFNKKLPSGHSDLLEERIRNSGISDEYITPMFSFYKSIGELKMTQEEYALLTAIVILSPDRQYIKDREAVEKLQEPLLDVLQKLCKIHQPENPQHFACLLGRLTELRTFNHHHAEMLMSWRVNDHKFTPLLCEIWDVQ
Chain of ligand binding domain (LBD) of recombinant human FXR (Q96RI1 254-486): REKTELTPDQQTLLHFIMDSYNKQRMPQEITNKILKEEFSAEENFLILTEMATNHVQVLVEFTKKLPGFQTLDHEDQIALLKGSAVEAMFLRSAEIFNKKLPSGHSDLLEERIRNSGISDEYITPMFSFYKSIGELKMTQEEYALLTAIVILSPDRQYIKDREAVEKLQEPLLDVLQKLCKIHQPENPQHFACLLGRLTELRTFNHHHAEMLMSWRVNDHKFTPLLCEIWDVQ
Chain of ligand binding domain (LBD) of recombinant human FXR (Q15788 whole entry partner, the tested form may be a part): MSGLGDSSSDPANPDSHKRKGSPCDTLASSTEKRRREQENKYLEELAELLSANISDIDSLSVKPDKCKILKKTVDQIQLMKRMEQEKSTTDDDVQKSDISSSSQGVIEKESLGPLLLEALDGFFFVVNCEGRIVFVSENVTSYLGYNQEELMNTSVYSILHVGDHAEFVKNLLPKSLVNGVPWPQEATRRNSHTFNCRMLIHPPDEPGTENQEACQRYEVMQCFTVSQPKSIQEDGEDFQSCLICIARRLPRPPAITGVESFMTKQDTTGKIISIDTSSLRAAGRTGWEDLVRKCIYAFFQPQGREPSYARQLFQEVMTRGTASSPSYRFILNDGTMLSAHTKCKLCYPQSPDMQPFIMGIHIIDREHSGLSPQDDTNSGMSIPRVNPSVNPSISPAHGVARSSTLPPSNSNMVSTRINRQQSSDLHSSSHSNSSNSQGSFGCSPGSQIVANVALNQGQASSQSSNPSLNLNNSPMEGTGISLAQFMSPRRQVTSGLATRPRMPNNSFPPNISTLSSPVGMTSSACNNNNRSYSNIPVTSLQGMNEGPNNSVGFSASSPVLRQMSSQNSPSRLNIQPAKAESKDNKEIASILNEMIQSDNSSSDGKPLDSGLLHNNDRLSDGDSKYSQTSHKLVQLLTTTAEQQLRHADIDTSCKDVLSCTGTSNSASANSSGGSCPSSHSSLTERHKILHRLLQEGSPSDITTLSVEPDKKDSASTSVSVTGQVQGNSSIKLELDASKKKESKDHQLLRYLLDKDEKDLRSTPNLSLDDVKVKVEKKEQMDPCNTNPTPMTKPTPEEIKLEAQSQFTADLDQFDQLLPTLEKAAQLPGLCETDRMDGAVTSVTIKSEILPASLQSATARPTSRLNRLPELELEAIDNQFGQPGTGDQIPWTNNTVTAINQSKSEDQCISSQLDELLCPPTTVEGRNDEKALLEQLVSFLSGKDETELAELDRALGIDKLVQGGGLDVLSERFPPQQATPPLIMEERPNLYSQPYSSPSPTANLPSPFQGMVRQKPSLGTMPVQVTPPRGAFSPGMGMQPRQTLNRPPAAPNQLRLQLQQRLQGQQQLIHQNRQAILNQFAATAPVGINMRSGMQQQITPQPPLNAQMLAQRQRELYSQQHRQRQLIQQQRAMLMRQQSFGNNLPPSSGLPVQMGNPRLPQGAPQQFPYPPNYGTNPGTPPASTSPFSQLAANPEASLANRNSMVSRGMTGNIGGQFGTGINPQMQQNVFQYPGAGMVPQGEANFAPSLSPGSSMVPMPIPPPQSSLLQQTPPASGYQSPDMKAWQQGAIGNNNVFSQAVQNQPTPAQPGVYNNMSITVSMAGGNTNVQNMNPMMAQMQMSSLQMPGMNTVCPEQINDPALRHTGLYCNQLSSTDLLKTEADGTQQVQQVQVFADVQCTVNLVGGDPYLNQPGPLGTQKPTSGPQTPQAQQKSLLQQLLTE

Take `O=c1[nH]c(-c2cccc(N3CCC(OCc4c(-c5c(Cl)cccc5Cl)noc4C4CC4)CC3)c2)no1` [Example 7, 3-(3-(4-((5-cyclopropyl-3-(2,6-dichlorophenyl)isoxazol-4-yl)methoxy)piperidin-1-yl)phenyl)-1,2,4-oxadiazol-5(4H)-one]: the EC50 in assay [1] amounted to 1230 nM; in assay [2] it was 0.105 µM.

`O=c1[nH]c(-c2ncc(N3CCC(OCc4c(-c5c(Cl)cccc5Cl)noc4C4CC4)CC3)cn2)no1` [Example 8, 3-(5-(4-((5-cyclopropyl-3-(2,6-dichlorophenyl)isoxazol-4-yl)methoxy)piperidin-1-yl)pyrimidin-2-yl)-1,2,4-oxadiazol-5(4H)-one]: the EC50 worked out at 2110 nM in assay [1] and 0.0281 µM in assay [2].

On to `O=c1[nH]c(-c2ccc(N3CCC(OCc4c(-c5c(Cl)cccc5Cl)noc4C4CC4)CC3)cn2)no1` [Example 9, 3-(5-(4-((5-cyclopropyl-3-(2,6-dichlorophenyl)isoxazol-4-yl)methoxy)piperidin-1-yl)pyridin-2-yl)-1,2,4-oxadiazol-5(4H)-one], for which the EC50 in assay [1] worked out at 1590 nM; in assay [2], 0.175 µM.

As to `O=c1[nH]nc(-c2ccc(N3CCC(OCc4c(-c5c(Cl)cccc5Cl)noc4C4CC4)CC3)cc2)c(=O)[nH]1` [Example 10, 6-(4-(4-((5-cyclopropyl-3-(2,6-dichlorophenyl)isoxazol-4-yl)methoxy)piperidin-1-yl)phenyl)-1,2,4-triazine-3,5(2H,4H)-dione], the EC50 in assay [1] was found to be 409 nM; in assay [2], 0.0091 µM.

Consider `Cc1cc(N2CCC(OCc3c(-c4c(Cl)cccc4Cl)noc3C3CC3)CC2)ccc1-c1noc(=O)[nH]1` [Example 11, 3-(4-(4-((5-cyclopropyl-3-(2,6-dichlorophenyl)isoxazol-4-yl)methoxy)piperidin-1-yl)-2-methylphenyl)-1,2,4-oxadiazol-5(4H)-one], for which the figures for the EC50 in assay [1] and in assay [2] were 280 nM and 0.0219 µM, respectively.

Consider `O=c1[nH]nc(-c2ccc(N3CCC(OCc4c(-c5c(Cl)cccc5Cl)noc4C4CC4)CC3)cc2)o1` [Example 12, 5-(4-(4-((5-cyclopropyl-3-(2,6-dichlorophenyl)isoxazol-4-yl)methoxy)piperidin-1-yl)phenyl)-1,3,4-oxadiazol-2(3H)-one], for which the EC50 came to 437 nM in assay [1] and 0.0737 µM in assay [2].

As for `O=c1[nH]c(-c2ccc(N3CCC(OCc4c(-c5c(Cl)cccc5Cl)noc4C4CC4)CC3)cc2F)no1` [Example 13, 3-(4-(4-((5-cyclopropyl-3-(2,6-dichlorophenyl)isoxazol-4-yl)methoxy)piperidin-1-yl)-2-fluorophenyl)-1,2,4-oxadiazol-5(4H)-one], the EC50 in assay [1] is 82.3 nM; in assay [2], 0.0035 µM.

On to `O=c1[nH]c(-c2ccc(N3CCC(OCc4c(-c5c(Cl)cccc5Cl)noc4C4CC4)CC3)cc2Cl)no1` [Example 14, 3-(2-chloro-4-(4-((5-cyclopropyl-3-(2,6-dichlorophenyl)isoxazol-4-yl)methoxy)piperidin-1-yl)phenyl)-1,2,4-oxadiazol-5(4H)-one], for which the EC50 in assay [1] came to 64 nM; in assay [2] it was 0.0085 µM.

Regarding `O=c1[nH]c(-c2ccc(N3CCC(OCc4c(-c5c(Cl)cccc5Cl)noc4C4CC4)C3)cc2)no1` (stereo not drawn) [Example 15, 3-(4-(3-((5-cyclopropyl-3-(2,6-dichlorophenyl)isoxazol-4-yl)methoxy)pyrrolidin-1-yl)phenyl)-1,2,4-oxadiazol-5(4H)-one], the results for the EC50 in assay [1] and in assay [2] were 5510 nM and 0.892 µM, respectively.

As for `O=c1cc(-c2ccc(N3CCC(OCc4c(-c5c(Cl)cccc5Cl)noc4C4CC4)CC3)cc2)o[nH]1` [Example 16, 5-(4-(4-((5-cyclopropyl-3-(2,6-dichlorophenyl)isoxazol-4-yl)methoxy)piperidin-1-yl)phenyl)isoxazol-3(2H)-one], the EC50 in assay [1] amounted to 195 nM; in assay [2], 0.024 µM.

For the compound `O=c1cnn(-c2ccc(N3CCC(OCc4c(-c5c(Cl)cccc5Cl)noc4C4CC4)CC3)cc2)c(=O)[nH]1` [Example 17, 2-(4-(4-((5-cyclopropyl-3-(2,6-dichlorophenyl)isoxazol-4-yl)methoxy)piperidin-1-yl)phenyl)-1,2,4-triazine-3,5(2H,4H)-dione], the EC50 in assay [1] came to 4730 nM; in assay [2], 6.07 µM.

`O=c1[nH]c(-c2ccc(N3CCCC(OCc4c(-c5c(Cl)cccc5Cl)noc4C4CC4)CC3)cc2)no1` (stereo not drawn) [Example 18, 3-(4-(4-((5-cyclopropyl-3-(2,6-dichlorophenyl)isoxazol-4-yl)methoxy)azepan-1-yl)phenyl)-1,2,4-oxadiazol-5(4H)-one]: the EC50 came to 18.4 nM in assay [1] and 0.0029 µM in assay [2].

For the compound `O=c1[nH]c(-c2ccc(N3CC(OCc4c(-c5c(Cl)cccc5Cl)noc4C4CC4)C3)cc2)no1` [Example 19, 3-(4-(3-((5-cyclopropyl-3-(2,6-dichlorophenyl)isoxazol-4-yl)methoxy)azetidin-1-yl)phenyl)-1,2,4-oxadiazol-5(4H)-one], the EC50 in assay [1] amounted to 840 nM; in assay [2], 0.122 µM.

In the case of `C[C@H]1C[C@H](OCc2c(-c3c(Cl)cccc3Cl)noc2C2CC2)CCN1c1ccc(-c2noc(=O)[nH]2)cc1` [Example 20, 3-(4-((2S,4R)-4-((5-cyclopropyl-3-(2,6-dichlorophenyl)isoxazol-4-yl)methoxy)-2-methylpiperidin-1-yl)phenyl)-1,2,4-oxadiazol-5(4H)-one], the EC50 in assay [1] amounted to 398 nM; in assay [2], 0.114 µM.

`C[C@@H]1C[C@@H](OCc2c(-c3c(Cl)cccc3Cl)noc2C2CC2)CCN1c1ccc(-c2noc(=O)[nH]2)cc1` [Example 21, 3-(4-((2R,4S)-4-((5-cyclopropyl-3-(2,6-dichlorophenyl)isoxazol-4-yl)methoxy)-2-methylpiperidin-1-yl)phenyl)-1,2,4-oxadiazol-5(4H)-one]: the EC50 in assay [1] was determined as 343 nM; in assay [2], 0.0793 µM.

As to `C[C@H]1C[C@@H](OCc2c(-c3c(Cl)cccc3Cl)noc2C2CC2)CCN1c1ccc(-c2noc(=O)[nH]2)cc1` [Example 22, 3-(4-((2S,4S)-4-((5-cyclopropyl-3-(2,6-dichlorophenyl)isoxazol-4-yl)methoxy)-2-methylpiperidin-1-yl)phenyl)-1,2,4-oxadiazol-5(4H)-one], the values for the EC50 in assay [1] and in assay [2] were 418 nM and 0.0633 µM, respectively.

Take `C[C@@H]1C[C@H](OCc2c(-c3c(Cl)cccc3Cl)noc2C2CC2)CCN1c1ccc(-c2noc(=O)[nH]2)cc1` [Example 23, 3-(4-((2R,4R)-4-((5-cyclopropyl-3-(2,6-dichlorophenyl)isoxazol-4-yl)methoxy)-2-methylpiperidin-1-yl)phenyl)-1,2,4-oxadiazol-5(4H)-one]: the EC50 in assay [1] worked out at 27.7 nM; in assay [2], 0.0031 µM.

As for `O=c1[nH]c(-c2ccc(N3CCC(OCc4c(-c5c(F)cccc5F)noc4C4CC4)CC3)cc2)no1` [Example 26, 3-(4-(4-((5-cyclopropyl-3-(2,6-difluorophenyl)isoxazol-4-yl)methoxy)piperidin-1-yl)phenyl)-1,2,4-oxadiazol-5(4H)-one], the EC50 in assay [1] worked out at 562 nM; in assay [2], 0.111 µM.

Consider `CCOc1cccc(F)c1-c1noc(C2CC2)c1COC1CCN(c2ccc(-c3noc(=O)[nH]3)cc2)CC1` [Example 27, 3-(4-(4-((5-cyclopropyl-3-(2-ethoxy-6-fluorophenyl)isoxazol-4-yl)methoxy)piperidin-1-yl)phenyl)-1,2,4-oxadiazol-5(4H)-one], for which the results for the EC50 in assay [1] and in assay [2] were 960 nM and 0.227 µM, respectively.

As for `COc1cccc(F)c1-c1noc(C2CC2)c1COC1CCN(c2ccc(-c3noc(=O)[nH]3)cc2)CC1` [Example 28, 3-(4-(4-((5-cyclopropyl-3-(2-fluoro-6-methoxyphenyl)isoxazol-4-yl)methoxy)piperidin-1-yl)phenyl)-1,2,4-oxadiazol-5(4H)-one], the results for the EC50 in assay [1] and in assay [2] were 1610 nM and 0.149 µM, respectively.

As for `O=c1[nH]c(-c2coc(N3CCC(OCc4c(-c5c(Cl)cccc5Cl)noc4C4CC4)CC3)n2)no1` [Example 29, 3-(2-(4-((5-cyclopropyl-3-(2,6-dichlorophenyl)isoxazol-4-yl)methoxy)piperidin-1-yl)oxazol-4-yl)-1,2,4-oxadiazol-5(4H)-one], the EC50 in assay [1] was 3190 nM; in assay [2], 0.231 µM.
